Assay results: patent US7964531B2, “3-phenoxy-4-pyridazinol derivatives and herbicidal composition containing the same” (Mitsui Chemicals Agro, Inc., priority 2001, dated 2011)

Columns and labels:
Assay type in all cases: in vivo
Cyperus serotinus [1] = assay: Test Example 1: herbicidal effects, paddy-field pot test; settings: wettable powder applied 3 days after transplanting, judged after 25 days
Summary of the method: (§1)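 Paddy soil pots sown with dormancy-broken weed seeds mixed into the top 1 cm, plus germinated Cyperus serotinus tubers and transplanted 2.2-leaf rice seedlings, grown flooded in a greenhouse. Water-diluted wettable powder applied 3 days after transplanting; growth inhibition scored 25 days later on a 0–5 scale (0 = 0–10%, 5 = 91–100%).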

Scirpus joncoides [2] = assay: as above; settings: wettable powder applied 3 days after transplanting, judged after 25 days
Summary of the method: as §1

[3] = system: annual broad-leaved weeds (Lindernia spp., Rotala indica); assay: as above; settings: wettable powder applied 3 days after transplanting, judged after 25 days
Summary of the method: as §1

[4] = system: barnyardgrass (Echinochloa oryzicola Vasing.); assay: as above; settings: wettable powder applied 3 days after transplanting, judged after 25 days
Summary of the method: as §1

[5] = system: transplanted paddy-field rice; assay: Test Example 1: crop injury against transplanted paddy-field rice; settings: wettable powder applied 3 days after transplanting, judged after 25 days
Summary of the method: as §1

[6] = system: transplanted paddy-field rice; assay: Test Example 4: crop injury against transplanted paddy-field rice; settings: derivative 2.5 g/a, no second compound; after 25 days
Method: (§2) Paddy filed soil was filled in 1/5000 are Wagner pot, seeds of barnyardgrass (Echinochloa oryzicola Vasing.), Scirpus joncoides and annual broad-leaved weeds (Lindernia spp. and Rotala indica) which are awaken from dormancy were mixed at the surface layer of 1 cm. Also, tubers of Cyperus serotinus, Sagittaria pygmaea and Eleocharis kuroguwai which are awaken from dormancy were planted, and further seedlings of paddy-field rice at 2.2-leaf stage were transplanted and they were grown under the flooded condition in a greenhouse. After 3 days from the transplanting, a predetermined chemical dosage of the wettable powder prepared in accordance with Preparation example 5 was diluted with water, and applied to the pot. After 25 days, herbicidal effects and crop injury against transplanted paddy-field rice were judged according to the following judgment standard, and the results were shown in Table 5. Incidentally, “-” in the table means a composition containing no effective ingredient.
(§3) Judgment Standard • 0: Growth-inhibition rate; 0 to 15% • 1: Growth inhibition rate; 16 to 35% • 2: Growth inhibition rate; 36 to 55% • 3: Growth inhibition rate; 56 to 75% • 4: Growth inhibition rate; […] • 5: Growth inhibition rate; 96 to 100%.

Cyperus serotinus [7] = assay: Test Example 4: herbicidal effects of mixed wettable powder, paddy-field pot test; settings: derivative 2.5 g/a, no second compound; after 25 days
Method: as §2, §3

Scirpus joncoides [8] = assay: as above; settings: derivative 2.5 g/a, no second compound; after 25 days
Method: as §2, §3

Sagittaria pygmaea = assay: as above; settings: derivative 2.5 g/a, no second compound; after 25 days
Method: as §2, §3

Eleocharis kuroguwai = assay: as above; settings: derivative 2.5 g/a, no second compound; after 25 days
Method: as §2, §3

[9] = system: annual broad-leaved weeds (Lindernia spp. and Rotala indica); assay: as above; settings: derivative 2.5 g/a, no second compound; after 25 days
Method: as §2, §3

[10] = system: barnyardgrass (Echinochloa oryzicola Vasing.); assay: as above; settings: derivative 2.5 g/a, no second compound; after 25 days
Method: as §2, §3

[11] = system: indian mustard (Brassica juncea (L.) Czern. et Coss); assay: Test Example 2: herbicidal effects (soil treatment); settings: dosage 5 kg/a; soil treatment the day after seeding; judged after 21 days
Excerpt: (§4) Judgment Standard • 0: Growth inhibition rate; 0 to 10% • 1: Growth inhibition rate; 11 to 30% • 2: Growth inhibition rate; 31 to 50% • 3: Growth inhibition rate; 51 to 70% • 4: Growth inhibition rate; 71 to 90% • 5: Growth inhibition rate; 91 to 100%.
(§5) Upland soil was filled in 150 cm^2 pot, and seeds of barnyardgrass and indian mustard (Brassica juncea (L.) Czern. et Coss) were sowed, and grown in a greenhouse. At the next day of seeding, a predetermined chemical dosage of the wettable powder prepared in accordance with Preparation example 1 was diluted in water and applied to soil surface. After 21 days from the treatment, herbicidal effects were judged in accordance with the judgment standard of Test example 1, and the results were shown in Table 3.

barnyardgrass = assay: as above; settings: dosage 5 kg/a; soil treatment the day after seeding; judged after 21 days
Excerpt: as §4, §5

Row | SMILES | Herbicidal effects Cyperus serotinus (Cyperus serotinus [1]; chemical dosage 10 g/a) | Herbicidal effects Cyperus serotinus (Cyperus serotinus [1]; chemical dosage 20 g/a) | Herbicidal effects Scirpus joncoides (Scirpus joncoides [2]; chemical dosage 10 g/a) | Herbicidal effects Scirpus joncoides (Scirpus joncoides [2]; chemical dosage 20 g/a) | Herbicidal effects Broad leaf ([3]; chemical dosage 10 g/a) | Herbicidal effects Broad leaf ([3]; chemical dosage 20 g/a) | Herbicidal effects Barnyard grass ([4]; chemical dosage 10 g/a) | Herbicidal effects Barnyard grass ([4]; chemical dosage 20 g/a) | Crop injury against transplanted rice ([5]; chemical dosage 10 g/a) | Crop injury against transplanted rice ([5]; chemical dosage 20 g/a) | Crop injury against transplanted rice [6] | Herbicidal effects Cyperus serotinus (Cyperus serotinus [7]) | Herbicidal effects Scirpus joncoides (Scirpus joncoides [8]) | Herbicidal effects Sagittaria pygmaea (Sagittaria pygmaea) | Herbicidal effects Eleocharis kuroguwai (Eleocharis kuroguwai) | Herbicidal effects Broad leaf [9] | Herbicidal effects Barnyard grass [10] | Herbicidal effects indian mustard [11] | Herbicidal effects Barnyard-grass (barnyardgrass)
1 | Oc1cc(Cl)nnc1Oc1cccc2ccoc12 [Example 191] | 5 (Growth inhibition rate; 91 to 100%) | 5 (Growth inhibition rate; 91 to 100%) | 5 (Growth inhibition rate; 91 to 100%) | 5 (Growth inhibition rate; 91 to 100%) | 5 (Growth inhibition rate; 91 to 100%) | 5 (Growth inhibition rate; 91 to 100%) | 4 (Growth inhibition rate; 71 to 90%) | 5 (Growth inhibition rate; 91 to 100%) | 2 (Growth inhibition rate; 31 to 50%) | 5 (Growth inhibition rate; 91 to 100%) | 0 (Growth-inhibition rate; 0 to 15%) | 5 (Growth inhibition rate; 96 to 100%) | 3 (Growth inhibition rate; 56 to 75%) | 2 (Growth inhibition rate; 36 to 55%) | 1 (Growth inhibition rate; 16 to 35%) | 3 (Growth inhibition rate; 56 to 75%) | 1 (Growth inhibition rate; 16 to 35%) | – | –
2 | Cc1cccc(I)c1Oc1nnc(Cl)cc1O [Example 256] | 5 (Growth inhibition rate; 91 to 100%) | 5 (Growth inhibition rate; 91 to 100%) | 5 (Growth inhibition rate; 91 to 100%) | 5 (Growth inhibition rate; 91 to 100%) | 5 (Growth inhibition rate; 91 to 100%) | 5 (Growth inhibition rate; 91 to 100%) | 3 (Growth inhibition rate; 51 to 70%) | 4 (Growth inhibition rate; 71 to 90%) | 2 (Growth inhibition rate; 31 to 50%) | 3 (Growth inhibition rate; 51 to 70%) | – | – | – | – | – | – | – | 5 (Growth inhibition rate; 91 to 100%) | 3 (Growth inhibition rate; 51 to 70%)
3 | Cc1ccc2ccoc2c1Oc1nnc(Cl)cc1O [Example 310] | 5 (Growth inhibition rate; 91 to 100%) | 5 (Growth inhibition rate; 91 to 100%) | 5 (Growth inhibition rate; 91 to 100%) | 5 (Growth inhibition rate; 91 to 100%) | 5 (Growth inhibition rate; 91 to 100%) | 5 (Growth inhibition rate; 91 to 100%) | 4 (Growth inhibition rate; 71 to 90%) | 5 (Growth inhibition rate; 91 to 100%) | 0 (Growth inhibition rate; 0 to 10%) | 0 (Growth inhibition rate; 0 to 10%) | – | – | – | – | – | – | – | 5 (Growth inhibition rate; 91 to 100%) | 5 (Growth inhibition rate; 91 to 100%)
